System: 616215-338-R-J1-PDC complex spheroid viability
Test: Anticancer human tumor 616215-338-R-J1-PDC patient-derived colon adenocarcinoma cell line growth inhibition [RAS]
Details: for IC50: curve of first compound; for viability, T/C: stronger effect = lower value
Summary of the method: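 Tumour cells grown as complex spheroids with HUVEC endothelial cells and mesenchymal stem cells, treated with RAS pathway inhibitor combinations. Each agent spans half-log steps from near clinical Cmax, or 10 microM where Cmax is unknown.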

[1] = second compound 0.00316 µM, first compound 0.0316 µM
[2] = second compound 0.00316 µM, first compound 0.1 µM
[3] = second compound 0.00316 µM, first compound 0.316 µM
[4] = second compound 0.00316 µM, first compound 1 µM
[5] = second compound 0.00316 µM, first compound 3.16 µM
[6] = second compound 0.00316 µM, first compound 10 µM
[7] = second compound 0.01 µM, first compound 0.0316 µM
[8] = second compound 0.01 µM, first compound 0.1 µM
[9] = second compound 0.01 µM, first compound 0.316 µM
[10] = second compound 0.01 µM, first compound 1 µM
[11] = second compound 0.01 µM, first compound 3.16 µM
[12] = second compound 0.01 µM, first compound 10 µM
[13] = second compound 0.0316 µM, first compound 0.0316 µM
[14] = second compound 0.0316 µM, first compound 0.1 µM
[15] = second compound 0.0316 µM, first compound 0.316 µM
[16] = second compound 0.0316 µM, first compound 1 µM
[17] = second compound 0.0316 µM, first compound 3.16 µM
[18] = second compound 0.0316 µM, first compound 10 µM
[19] = second compound 0.1 µM, first compound 0.0316 µM
[20] = second compound 0.1 µM, first compound 0.1 µM
[21] = second compound 0.1 µM, first compound 0.316 µM
[22] = second compound 0.1 µM, first compound 1 µM
[23] = second compound 0.1 µM, first compound 3.16 µM
[24] = second compound 0.1 µM, first compound 10 µM
[25] = second compound 0.316 µM, first compound 0.0316 µM
[26] = second compound 0.316 µM, first compound 0.1 µM
[27] = second compound 0.316 µM, first compound 0.316 µM
[28] = second compound 0.316 µM, first compound 1 µM
[29] = second compound 0.316 µM, first compound 3.16 µM
[30] = second compound 0.316 µM, first compound 10 µM
[31] = second compound 1 µM, first compound 0.0316 µM
[32] = second compound 1 µM, first compound 0.1 µM
[33] = second compound 1 µM, first compound 0.316 µM
[34] = second compound 1 µM, first compound 1 µM
[35] = second compound 1 µM, first compound 3.16 µM
[36] = second compound 1 µM, first compound 10 µM
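Note: spheroids exposed to agents for seven days before viability readout.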
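Throughout, for viability, T/C: 100% = DMSO vehicle control viability.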

CC1(O)CCCC1n1c(=O)c(C(F)F)cc2cnc(NC3CCN(S(C)(=O)=O)CC3)nc21 (centres undefined) + C=CC(=O)N1CCN(c2nc(OCC3CCCN3C)nc3c(F)c(-c4nc(N)cc(C)c4C(F)(F)F)c(Cl)cc23)C(C)C1
IC50 (second compound 0.00316 µM): 295 nM
IC50 (second compound 0.01 µM): 1340 nM
IC50 (second compound 0.0316 µM): 1100 nM
IC50 (second compound 0.1 µM): 1130 nM
IC50 (second compound 0.316 µM): 1060 nM
IC50 (second compound 1 µM): 1180 nM
viability, T/C [1]: 115%
viability, T/C [2]: 125%
viability, T/C [3]: 45.5%
viability, T/C [4]: 52.3%
viability, T/C [5]: 46.1%
viability, T/C [6]: 3.51%
viability, T/C [7]: 124%
viability, T/C [8]: 115%
viability, T/C [9]: 49.8%
viability, T/C [10]: 60.2%
viability, T/C [11]: 49.4%
viability, T/C [12]: 3.84%
viability, T/C [13]: 113%
viability, T/C [14]: 113%
viability, T/C [15]: 50.3%
viability, T/C [16]: 51.6%
viability, T/C [17]: 48.7%
viability, T/C [18]: 1.4%
viability, T/C [19]: 111%
viability, T/C [20]: 114%
viability, T/C [21]: 58%
viability, T/C [22]: 55.4%
viability, T/C [23]: 39.6%
viability, T/C [24]: 1.02%
viability, T/C [25]: 117%
viability, T/C [26]: 107%
viability, T/C [27]: 54.8%
viability, T/C [28]: 49%
viability, T/C [29]: 44.5%
viability, T/C [30]: 1.06%
viability, T/C [31]: 117%
viability, T/C [32]: 108%
viability, T/C [33]: 58.1%
viability, T/C [34]: 53.2%
viability, T/C [35]: 46.3%
viability, T/C [36]: 2.1%

CCC(CC)c1cc(NC2CCC(N)C2)n2nccc2n1 (centres undefined) + C=CC(=O)N1CCN(c2nc(OCC3CCCN3C)nc3c(F)c(-c4nc(N)cc(C)c4C(F)(F)F)c(Cl)cc23)C(C)C1
IC50 (second compound 0.00316 µM): 1770 nM
IC50 (second compound 0.01 µM): 1800 nM
IC50 (second compound 0.0316 µM): 1790 nM
IC50 (second compound 0.1 µM): 1780 nM
IC50 (second compound 0.316 µM): 1800 nM
IC50 (second compound 1 µM): 1860 nM
viability, T/C [1]: 101%
viability, T/C [2]: 97.5%
viability, T/C [3]: 92.6%
viability, T/C [4]: 97.8%
viability, T/C [5]: 0.65%
viability, T/C [6]: 2.31%
viability, T/C [7]: 100%
viability, T/C [8]: 102%
viability, T/C [9]: 96.6%
viability, T/C [10]: 102%
viability, T/C [11]: 0.87%
viability, T/C [12]: 2.95%
viability, T/C [13]: 108%
viability, T/C [14]: 100%
viability, T/C [15]: 90.2%
viability, T/C [16]: 105%
viability, T/C [17]: 0.34%
viability, T/C [18]: 0.25%
viability, T/C [19]: 103%
viability, T/C [20]: 95.2%
viability, T/C [21]: 96.9%
viability, T/C [22]: 104%
viability, T/C [23]: 0.59%
viability, T/C [24]: 0.27%
viability, T/C [25]: 107%
viability, T/C [26]: 90.1%
viability, T/C [27]: 101%
viability, T/C [28]: 105%
viability, T/C [29]: 1.41%
viability, T/C [30]: 1.72%
viability, T/C [31]: 106%
viability, T/C [32]: 106%
viability, T/C [33]: 96.5%
viability, T/C [34]: 114%
viability, T/C [35]: 2.76%
viability, T/C [36]: 2.4%

Source: PubChem BioAssay AID2060898 (Molecular Pharmacology Branch, DTP, NCI, 2025)
